Laboratory results from paper PMC2949283 (The Biochemical journal, 2009).

Columns and labels:
[1] = target: T1, D74N HuAChE (Homo sapiens, UniProt P22303, D105N); conditions: D74N HuAChE vs wild type; cited from earlier work
[2] = target: Y133A HuAChE (Homo sapiens, UniProt P22303, Y164A); assay: HuAChE inhibition kinetics; type: biochemical; conditions: Y133A HuAChE
[3] = target: E202Q HuAChE (Homo sapiens, UniProt P22303, E233Q); assay: HuAChE inhibition kinetics; type: biochemical; conditions: E202Q HuAChE
[4] = target: Y72N/Y124Q/W286A HuAChE (Homo sapiens, UniProt P22303, W317A/Y103N/Y155Q); assay: HuAChE inhibition kinetics; type: biochemical
[5] = target: Y341A HuAChE (Homo sapiens, UniProt P22303, Y372A); assay: HuAChE inhibition kinetics; type: biochemical; conditions: Y341A HuAChE
[6] = target: F295A/F338A/V407F HuAChE (Homo sapiens, UniProt P22303, F326A/F369A/V438F); assay: HuAChE inhibition kinetics; type: biochemical; conditions: F295A/F338A/V407F HuAChE
[7] = target: W286A HuAChE (Homo sapiens, UniProt P22303, W317A); assay: HuAChE inhibition kinetics; type: biochemical; conditions: W286A HuAChE
[8] = target: Y133F HuAChE (Homo sapiens, UniProt P22303, Y164F); assay: HuAChE inhibition kinetics; type: biochemical; conditions: Y133F HuAChE
[9] = target: W86A HuAChE (Homo sapiens, UniProt P22303, W117A); assay: HuAChE inhibition kinetics; type: biochemical; conditions: W86A HuAChE
[10] = target: Wild Type HuAChE (Homo sapiens, UniProt P22303); assay: HuAChE inhibition kinetics; type: biochemical; conditions: Wild Type HuAChE
[11] = target: G122A HuAChE (Homo sapiens, UniProt P22303, G153A); assay: HuAChE inhibition kinetics; type: biochemical
[12] = target: W86F HuAChE (Homo sapiens, UniProt P22303, W117F); assay: HuAChE inhibition kinetics; type: biochemical; conditions: W86F HuAChE
[13] = target: F295L/F297V/Y337A HuAChE (Homo sapiens, UniProt P22303, F326L/F328V/Y368A); assay: HuAChE inhibition kinetics; type: biochemical; conditions: F295L/F297V/Y337A HuAChE
[14] = target: E450A HuAChE (Homo sapiens, UniProt P22303, E481A); assay: HuAChE inhibition kinetics; type: biochemical; conditions: E450A HuAChE
[15] = target: F295A HuAChE (Homo sapiens, UniProt P22303, F326A); assay: HuAChE inhibition kinetics; type: biochemical; conditions: F295A HuAChE
[16] = target: Y337A HuAChE (Homo sapiens, UniProt P22303, Y368A); assay: HuAChE inhibition kinetics; type: biochemical; conditions: Y337A HuAChE
[17] = target: Y72N/Y124Q/W286A/ F295L/F297V/Y337A HuAChE (Homo sapiens, UniProt P22303, F326L/F328V/W317A/Y103N/Y155Q/Y368A); assay: HuAChE inhibition kinetics; type: biochemical; conditions: Y72N/Y124Q/W286A/F295L/F297V/Y337A HuAChE
[18] = target: E202A HuAChE (Homo sapiens, UniProt P22303, E233A); assay: HuAChE inhibition kinetics; type: biochemical; conditions: E202A HuAChE
[19] = target: Y124A HuAChE (Homo sapiens, UniProt P22303, Y155A); assay: HuAChE inhibition kinetics; type: biochemical
[20] = target: T1, D74N HuAChE; assay: HuAChE inhibition kinetics; type: biochemical; conditions: D74N HuAChE
[21] = target: F338A HuAChE (Homo sapiens, UniProt P22303, F369A); assay: HuAChE inhibition kinetics; type: biochemical; conditions: F338A HuAChE
[22] = target: F295A/F338A HuAChE (Homo sapiens, UniProt P22303, F326A/F369A); assay: HuAChE inhibition kinetics; type: biochemical; conditions: F295A/F338A HuAChE
[23] = target: Y337F HuAChE (Homo sapiens, UniProt P22303, Y368F); assay: HuAChE inhibition kinetics; type: biochemical; conditions: Y337F HuAChE
[24] = target: HuBChE-Wild Type (Homo sapiens, UniProt P06276); assay: HuBChE inhibition kinetics; type: biochemical; conditions: HuBChE-Wild Type
[25] = target: F297A HuAChE (Homo sapiens, UniProt P22303, F328A); assay: HuAChE inhibition kinetics; type: biochemical; conditions: F297A HuAChE
[26] = target: Y72N HuAChE (Homo sapiens, UniProt P22303, Y103N); assay: HuAChE inhibition kinetics; type: biochemical; conditions: Y72N HuAChE
[27] = target: W86A/Y337A HuAChE (Homo sapiens, UniProt P22303, W117A/Y368A); assay: biochemical; type: biochemical
[28] = target: Y72N/Y124Q/W286A/ F295L/F297V/Y337A/ V407F HuAChE (Homo sapiens, UniProt P22303, F326L/F328V/V438F/W317A/Y103N/Y155Q/Y368A); assay: HuAChE inhibition kinetics; type: biochemical; conditions: Y72N/Y124Q/W286A/F295L/F297V/Y337A/V407F HuAChE
[29] = target: F295A/F297A HuAChE (Homo sapiens, UniProt P22303, F326A/F328A); assay: HuAChE inhibition kinetics; type: biochemical
[30] = target: F295L/F297V HuAChE (Homo sapiens, UniProt P22303, F326L/F328V); assay: HuAChE inhibition kinetics; type: biochemical; conditions: F295L/F297V HuAChE
F295L/F297V HuAChE, sequence (P22303 32-614 F326L/F328V): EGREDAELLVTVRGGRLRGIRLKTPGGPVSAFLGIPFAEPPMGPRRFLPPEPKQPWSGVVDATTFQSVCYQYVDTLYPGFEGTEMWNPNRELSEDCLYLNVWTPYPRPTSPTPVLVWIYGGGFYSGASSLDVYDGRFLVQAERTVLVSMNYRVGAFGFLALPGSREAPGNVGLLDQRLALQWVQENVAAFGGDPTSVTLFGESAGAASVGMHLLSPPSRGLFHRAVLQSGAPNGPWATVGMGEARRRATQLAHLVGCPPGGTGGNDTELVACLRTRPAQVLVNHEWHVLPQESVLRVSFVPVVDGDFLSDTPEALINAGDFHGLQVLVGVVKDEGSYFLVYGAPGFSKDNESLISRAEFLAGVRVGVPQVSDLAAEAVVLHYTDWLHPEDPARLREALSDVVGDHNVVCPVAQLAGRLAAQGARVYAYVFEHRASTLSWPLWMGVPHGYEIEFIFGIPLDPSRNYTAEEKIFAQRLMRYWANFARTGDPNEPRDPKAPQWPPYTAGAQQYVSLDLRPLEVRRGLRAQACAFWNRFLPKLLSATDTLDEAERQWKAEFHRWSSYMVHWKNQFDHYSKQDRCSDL

Y72N/Y124Q/W286A/ F295L/F297V/Y337A HuAChE, sequence (P22303 32-614 Y103N/Y155Q/W317A/F326L/F328V/Y368A): as the sequence (P22303 32-614 F326L/F328V) above, with Y72N, Y124Q, W286A, Y337A counted along it
F295A/F338A HuAChE, sequence (P22303 32-614 F326A/F369A): as the sequence (P22303 32-614 F326L/F328V) above, with L295A, V297F, F338A counted along it
W286A HuAChE, sequence (P22303 32-614 W317A): as the sequence (P22303 32-614 F326L/F328V) above, with W286A, L295F, V297F counted along it
Y124A HuAChE, sequence (P22303 32-614 Y155A): as the sequence (P22303 32-614 F326L/F328V) above, with Y124A, L295F, V297F counted along it
T1 sequence (P22303 32-614 D105N): as the sequence (P22303 32-614 F326L/F328V) above, with D74N, L295F, V297F counted along it
F295A HuAChE, sequence (P22303 32-614 F326A): as the sequence (P22303 32-614 F326L/F328V) above, with L295A, V297F counted along it
E450A HuAChE, sequence (P22303 32-614 E481A): as the sequence (P22303 32-614 F326L/F328V) above, with L295F, V297F, E450A counted along it
W86A/Y337A HuAChE, sequence (P22303 32-614 W117A/Y368A): as the sequence (P22303 32-614 F326L/F328V) above, with W86A, L295F, V297F, Y337A counted along it
F297A HuAChE, sequence (P22303 32-614 F328A): as the sequence (P22303 32-614 F326L/F328V) above, with L295F, V297A counted along it
E202Q HuAChE, sequence (P22303 32-614 E233Q): as the sequence (P22303 32-614 F326L/F328V) above, with E202Q, L295F, V297F counted along it
Wild Type HuAChE, sequence (P22303 32-614): as the sequence (P22303 32-614 F326L/F328V) above, with L295F, V297F counted along it
Y337A HuAChE, sequence (P22303 32-614 Y368A): as the sequence (P22303 32-614 F326L/F328V) above, with L295F, V297F, Y337A counted along it
Y72N/Y124Q/W286A/ F295L/F297V/Y337A/ V407F HuAChE, sequence (P22303 32-614 Y103N/Y155Q/W317A/F326L/F328V/Y368A/V438F): as the sequence (P22303 32-614 F326L/F328V) above, with Y72N, Y124Q, W286A, Y337A, V407F counted along it
F295L/F297V/Y337A HuAChE, sequence (P22303 32-614 F326L/F328V/Y368A): as the sequence (P22303 32-614 F326L/F328V) above, with Y337A counted along it
HuBChE-Wild Type, sequence (P06276 29-602): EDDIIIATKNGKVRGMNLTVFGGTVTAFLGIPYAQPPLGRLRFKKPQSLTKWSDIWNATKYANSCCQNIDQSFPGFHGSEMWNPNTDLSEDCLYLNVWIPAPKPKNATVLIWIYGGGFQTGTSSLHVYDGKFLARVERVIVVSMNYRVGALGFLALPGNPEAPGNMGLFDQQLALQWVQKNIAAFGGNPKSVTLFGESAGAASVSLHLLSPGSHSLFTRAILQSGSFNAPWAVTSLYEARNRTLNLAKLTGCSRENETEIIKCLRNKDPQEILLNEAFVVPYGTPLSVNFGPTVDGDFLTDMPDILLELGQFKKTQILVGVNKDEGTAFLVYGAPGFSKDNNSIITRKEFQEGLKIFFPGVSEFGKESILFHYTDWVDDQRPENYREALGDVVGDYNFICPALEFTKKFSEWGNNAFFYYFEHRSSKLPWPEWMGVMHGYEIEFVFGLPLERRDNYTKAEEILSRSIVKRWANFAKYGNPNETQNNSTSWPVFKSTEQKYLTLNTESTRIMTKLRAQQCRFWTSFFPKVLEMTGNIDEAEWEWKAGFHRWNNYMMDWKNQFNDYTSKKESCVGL
Y337F HuAChE, sequence (P22303 32-614 Y368F): as the sequence (P22303 32-614 F326L/F328V) above, with L295F, V297F, Y337F counted along it
Y341A HuAChE, sequence (P22303 32-614 Y372A): as the sequence (P22303 32-614 F326L/F328V) above, with L295F, V297F, Y341A counted along it
G122A HuAChE, sequence (P22303 32-614 G153A): as the sequence (P22303 32-614 F326L/F328V) above, with G122A, L295F, V297F counted along it
F295A/F338A/V407F HuAChE, sequence (P22303 32-614 F326A/F369A/V438F): as the sequence (P22303 32-614 F326L/F328V) above, with L295A, V297F, F338A, V407F counted along it
W86F HuAChE, sequence (P22303 32-614 W117F): as the sequence (P22303 32-614 F326L/F328V) above, with W86F, L295F, V297F counted along it
F338A HuAChE, sequence (P22303 32-614 F369A): as the sequence (P22303 32-614 F326L/F328V) above, with L295F, V297F, F338A counted along it
Y72N/Y124Q/W286A HuAChE, sequence (P22303 32-614 Y103N/Y155Q/W317A): as the sequence (P22303 32-614 F326L/F328V) above, with Y72N, Y124Q, W286A, L295F, V297F counted along it
Y133A HuAChE, sequence (P22303 32-614 Y164A): as the sequence (P22303 32-614 F326L/F328V) above, with Y133A, L295F, V297F counted along it
Y133F HuAChE, sequence (P22303 32-614 Y164F): as the sequence (P22303 32-614 F326L/F328V) above, with Y133F, L295F, V297F counted along it
W86A HuAChE, sequence (P22303 32-614 W117A): as the sequence (P22303 32-614 F326L/F328V) above, with W86A, L295F, V297F counted along it
E202A HuAChE, sequence (P22303 32-614 E233A): as the sequence (P22303 32-614 F326L/F328V) above, with E202A, L295F, V297F counted along it
Y72N HuAChE, sequence (P22303 32-614 Y103N): as the sequence (P22303 32-614 F326L/F328V) above, with Y72N, L295F, V297F counted along it
F295A/F297A HuAChE, sequence (P22303 32-614 F326A/F328A): as the sequence (P22303 32-614 F326L/F328V) above, with L295A, V297A counted along it

| Structure (SMILES) | k2, carbamylation rate constant [2] [min⁻¹] | k2, carbamylation rate constant [3] [min⁻¹] | k2, carbamylation rate constant [5] [min⁻¹] | k2, carbamylation rate constant [6] [min⁻¹] | k2, carbamylation rate constant [7] [min⁻¹] | ki, bimolecular rate constant of carbamylation [7] | k2, carbamylation rate constant [8] [min⁻¹] | k2, carbamylation rate constant [9] [min⁻¹] | k2, carbamylation rate constant [10] [min⁻¹] | k2, carbamylation rate constant [12] [min⁻¹] | k2, carbamylation rate constant [13] [min⁻¹] | k2, carbamylation rate constant [14] [min⁻¹] | k2, carbamylation rate constant [15] [min⁻¹] | k2, carbamylation rate constant [16] [min⁻¹] | k2, carbamylation rate constant [17] [min⁻¹] | ki, bimolecular rate constant of carbamylation [17] | k2, carbamylation rate constant [18] [min⁻¹] | k2, carbamylation rate constant [19] [min⁻¹] | ki, bimolecular rate constant of carbamylation [19] | k2, carbamylation rate constant [20] [min⁻¹] | further results |
| --- | --- | --- | --- | --- | --- | --- | --- | --- | --- | --- | --- | --- | --- | --- | --- | --- | --- | --- | --- | --- | --- |
| CC[N+](C)(C)c1cccc(O)c1 [edrophonium] | – | – | – | – | – | – | – | – | – | – | – | – | – | – | – | – | – | – | – | – | increase of the dissociation constant [1]: 5 fold |
| CN(C)C(=O)Oc1ccc[n+](C)c1 [Pyridostigmine, pyridostigmine bromide] | 1.80 ± 0.3 | 1.00 ± 0.2 | 1.0 ± 0.1 | 0.5 ± 0.15 | 1.8 ± 0.5 | 14.0±0.6 × 10^−4 M^−1min^−1 | 0.20 ± 0.04 | 0.68 ± 0.2 | 0.77 ± 0.3 | 0.65 ± 0.2 | 0.55 ± 0.09 | 0.15 ± 0.02 | 0.17 ± 0.02 | 0.80 ± 0.1 | 0.40 ± 0.1 | 0.6±0.1 × 10^−4 M^−1min^−1 | 0.20 ± 0.05 | 0.1 ± 0.01 | 13.8±0.4 × 10^−4 M^−1min^−1 | 1.0 ± 0.1 | k2, carbamylation rate constant [4]: 0.80 ± 0.07 min⁻¹; ki, bimolecular rate constant of carbamylation [4]: 9.3±0.8 × 10^−4 M^−1min^−1; k2, carbamylation rate constant [11]: 0.12 ± 0.02 min⁻¹; ki, bimolecular rate constant of carbamylation [11]: 0.76±0.2 × 10^−4 M^−1min^−1; k2, carbamylation rate constant [21]: 1.20 ± 0.4 min⁻¹; k2, carbamylation rate constant [22]: 0.5 ± 0.4 min⁻¹; ki, bimolecular rate constant of carbamylation [22]: 0.8±0.5 × 10^−4 M^−1min^−1; k2, carbamylation rate constant [23]: 0.68 ± 0.2 min⁻¹; k2, carbamylation rate constant [24]: 0.30 ± 0.03 min⁻¹; k2, carbamylation rate constant [25]: 0.64 ± 0.1 min⁻¹ |
| CNC(=O)Oc1ccc2c(c1)[C@]1(C)CCN(C)[C@@H]1N2C [(−)-Physostigmine, (−)physostigmine salicylate] | 0.40 ± 0.02 | 0.80 ± 0.20 | 1.90 ± 0.30 | 0.2 ± 0.03 | 2.70 ± 0.80 | 365±40 × 10^−4 M^−1min^−1 | 0.13 ± 0.01 | 0.80 ± 0.30 | 1.2 ± 0.5 | 0.90 ± 0.20 | 0.75 ± 0.20 | 0.15 ± 0.01 | 1.60 ± 0.50 | 1.10 ± 0.50 | 0.20 ± 0.05 | 34±1.2 × 10^−4 M^−1min^−1 | 0.24 ± 0.05 | 6.0 ± 1.8 | 150±3 × 10^−4 M^−1min^−1 | 2.40 ± 0.50 | k2, carbamylation rate constant [26]: 0.9 ± 0.14 min⁻¹; k2, carbamylation rate constant [27]: 1.2 ± 0.18 min⁻¹; ki, bimolecular rate constant of carbamylation [27]: 866 ±130 × 10^−4 M^−1min^−1; k2, carbamylation rate constant [28]: 1.25 ± 0.25 min⁻¹; ki, bimolecular rate constant of carbamylation [28]: 18±3 × 10^−4 M^−1min^−1; k2, carbamylation rate constant [29]: 0.6 ± 0.2 min⁻¹; k2, carbamylation rate constant [30]: 2.0 ± 0.4 min⁻¹; k2, carbamylation rate constant [21]: 0.40 ± 0.20 min⁻¹; k2, carbamylation rate constant [22]: 4.5 ± 0.9 min⁻¹; ki, bimolecular rate constant of carbamylation [22]: 78±19 × 10^−4 M^−1min^−1; k2, carbamylation rate constant [23]: 1.90 ± 0.40 min⁻¹; k2, carbamylation rate constant [24]: 0.55 ± 0.05 min⁻¹; k2, carbamylation rate constant [25]: 0.60 ± 0.10 min⁻¹ |
